From patent US20030176368A1, “Synthesis of epothilones, intermediates thereto and analogues thereof” (priority 2001, published 2003)
Read-outs that look alike come from different tables or passages of the source.

Key:
tubulin = assay: Tubulin binding: formation of microtubules in the presence of the compounds; assay type: biochemical
From the text: Indeed, the microtubule stabilizing ability closely parallels the observed cytotoxicity data.

CCRF-CEM = assay: XTT cytotoxicity assay, CCRF-CEM cells; assay type: cell-based, human; conditions: for activity in CCRF-CEM cell lines: Example 12, in words
Method: (§1) XTT assay following 72 h inhibition. CCRF-CEM is a human T-cell acute lymphoblastic leukemia cell line. The CCRF-CEM/VBL100, CCRF-CEM/VM1, and CCRF-CEM/Taxol cell lines all overexpress P-glycoprotein and display a multidrug resistance phenotype to MDR-associated oncolytics. (Chou et al. Proc. Natl. Acad. Sci. USA 98:8113, 2001; incorporated herein by reference).
(§2) A typical experiment invovles culturing cells (e.g., CCRF-CEM) at an initial density of 2-5×10^4 cells per ml. They are maintained in a 5% CO2-humidified atmosphere at 37° C. in RPMI medium 1640 (GIBCO/BRL) containing penicillin (100 units/ml), streptomycin (100 μg/ml) (GIBCO/BRL), and 5% heat-inactivated fetal bovine serum. For cells that were grown in suspension (such as CCRF-CEM and its sublines), cytotoxicitiy is measured by using the 2,-3-bis(2-methoxy-4-nitro-5-sulfophenyl)-5 carboxanilide)-2H terazodium hydroxide (XTT)-microculture tetrazonium method in duplicate in 96-well microtiter plates. For both methods, the absorbance of each well is measured with a microplate reader (EL-340, Bio-Tek, Burlington, Vt.). Each run entails six or seven concentrations of the tested drugs. Dose-effect relationship data are analyzed with the median-effect plot.
(§3) The CCRF-CEM human T cells, acute lymphoblastic leukemic cells, its teniposide-resistant subline (CCRF-CEM/VM1) and vinblastine-resistant subline (CCRF-CEM/VBL100) are obtained from W. T. Beck (University of Illinois, Chicago, Ill.).

CCRF-CEM/Taxol = assay: XTT cytotoxicity assay, taxol-resistant CCRF-CEM/Taxol cells; assay type: cell-based, human; conditions: for activity in CCRF-CEM cell lines resistant to Taxol: Example 12, in words
Method: as §1, §2

CCRF-CEM/VBL100 = assay: XTT cytotoxicity assay, vinblastine-resistant CCRF-CEM/VBL100 cells; assay type: cell-based, human
Method: as §1, §2, §3

CCRF-CEM/VM1 = assay: XTT cytotoxicity assay, teniposide-resistant CCRF-CEM/VM1 cells; assay type: cell-based, human
Method: as §1, §2, §3

[1] = Homo sapiens, CCRF-CEM, Example 5 Table 1, 72 h inhibition, read-out: In vitro Cytotoxicities (IC50) CCRF-CEM(C)
[2] = Homo sapiens, CCRF-CEM, Example 5 Table 1, 72 h inhibition, read-out: In vitro Cytotoxicities (IC50) C/VBL100
[3] = Homo sapiens, CCRF-CEM, Example 5 Table 1, 72 h inhibition, read-out: In vitro Cytotoxicities (IC50) C/Taxol
[4] = Example 6 table, XTT assay following 72 h inhibition, read-out: CCRF-CEM (IC50 (μM))
[5] = XTT assay following 72 h inhibition, read-out: In vitro Cytotoxicities (IC50) CCRF-CEM
[6] = Example 6 table, XTT assay following 72 h inhibition, read-out: CCRF-CEM/VBL (IC50 (μM))
[7] = XTT assay following 72 h inhibition, read-out: In vitro Cytotoxicities (IC50) CCRF-CEM/VBL100
[8] = XTT assay following 72 h inhibition, read-out: In vitro Cytotoxicities (IC50) CCRF-CEM/VM1
[9] = XTT assay following 72 h inhibition, read-out: In vitro Cytotoxicities (IC50) CCRF-CEM/Taxol
[10] = Homo sapiens, CCRF-CEM, Example 11 Table 2, XTT assay following 72-h inhibition, read-out: In Vitro Cytotoxicities (IC50) CCRF-CEM
[11] = Homo sapiens, CCRF-CEM, Example 11 Table 2, XTT assay following 72-h inhibition, read-out: In Vitro Cytotoxicities (IC50) CCRF-CEM/VBL100
[12] = Homo sapiens, CCRF-CEM, Example 11 Table 2, XTT assay following 72-h inhibition, read-out: In Vitro Cytotoxicities (IC50) CCRF-CEM/VMI
[13] = Homo sapiens, CCRF-CEM, Example 11 Table 2, XTT assay following 72-h inhibition, read-out: In Vitro Cytotoxicities (IC50) CCRF-CEM/TAXOL
[14] = Homo sapiens, CCRF-CEM, Example 5 Table 1, 72 h inhibition, read-out: In vitro Cytotoxicities (IC50) C/VM1
[15] = Microtubules formed in the presence of dEpoB is defined as 100%

10,11-dehydro-14,15-[18]desoxyepothilone B [[18]ddEpoB]
% Tubulin Binding (tubulin; Example 5 Table 1): 51%

C/C1=C/C[C@@H](/C(C)=C/c2csc(C)n2)OC(=O)C[C@H](O)C(C)(C)C(=O)[C@H](C)[C@@H](O)[C@@H](C)CC2OC(C)(C)OC12 (stereo partly shown) [10, 11-ketal-dEpoB]
activity in CCRF-CEM cell lines (CCRF-CEM): demonstrated activity | activity in CCRF-CEM cell lines resistant to Taxol (CCRF-CEM/Taxol): demonstrated activity

C/C1=C\[C@@H]2C[C@H](C)[C@H](O2)[C@@H](C)C(=O)C(C)(C)[C@@H](O)CC(=O)O[C@H](/C(C)=C/c2csc(C)n2)CC1O (stereo partly shown) [13 (THF macrocycle)]
IC50 (CCRF-CEM; [1]): 0.761 µM | IC50 (CCRF-CEM/VBL100; [2]): 8.76 µM | IC50 (CCRF-CEM/Taxol; [3]): 4.24 µM | % Tubulin Binding (tubulin; Example 5 Table 1): inactive

CC1=CCC(C(C)=Cc2csc(C)n2)OC(=O)CC(O)C(C)(C)C(=O)C(C)C(O)C(C)CC=CC1 (stereo not shown) [[17]ddEpoB, 10,11-dehydro-13,14-[17]desoxyepothilone B]
IC50 (CCRF-CEM; [4]): 0.04 µM | IC50 (CCRF-CEM; Example 12, growth inhibition, read-out: activity, CCRF-CEM tumor cell lines): ~0.051 µM | IC50 (CCRF-CEM; [5]): 0.04 µM | IC50 (CCRF-CEM/VBL100; [6]): 0.126 µM | IC50 (CCRF-CEM/VBL100; Example 12, growth inhibition, read-out: activity, CCRF-CEM/VBL100 resistant cell lines): ~0.137 µM | IC50 (CCRF-CEM/VBL100; [7]): 0.126 µM | IC50 (CCRF-CEM/VM1; Example 12, growth inhibition, read-out: activity, CCRF-CEM/VM1 resistant cell lines): ~0.055 µM | IC50 (CCRF-CEM/VM1; [8]): 0.055 µM | IC50 (CCRF-CEM/Taxol; Example 12, growth inhibition, read-out: activity, CCRF-CEM/Taxol resistant cell lines): ~0.049 µM | IC50 (CCRF-CEM/Taxol; [9]): 0.053 µM | % Tubulin Binding (tubulin; Example 5 Table 1): 94%

C/C(=C\c1csc(C)n1)[C@@H]1C/C=C(/CF)CCC[C@H](C)[C@H](O)[C@@H](C)C(=O)C(C)(C)[C@@H](O)CC(=O)O1 [Compound 26F-EpoD]
activity in CCRF-CEM cell lines (CCRF-CEM): demonstrated activity | IC50 (CCRF-CEM; Example 12, read-out: activity for CCRF-CEM cell lines): ~0.0015 µM | activity in CCRF-CEM cell lines resistant to Taxol (CCRF-CEM/Taxol): demonstrated activity | IC50 (CCRF-CEM/Taxol; Example 12, read-out: activity for CCRF-CEM/Taxol resistant cell lines): ~0.011 µM

10,11-dehydro-12,13-desoxyepothilone B [Epo490]
IC50 (CCRF-CEM; [4]): 0.02 µM | IC50 (CCRF-CEM; [5]): 0.025 µM | IC50 (CCRF-CEM/VBL100; [6]): 0.068 µM | IC50 (CCRF-CEM/VBL100; [7]): 0.091 µM | IC50 (CCRF-CEM/VM1; [8]): 0.035 µM | IC50 (CCRF-CEM/Taxol; [9]): 0.032 µM

CC[C@]1(O)C[C@@H]2CN(CCc3c([nH]c4ccccc34)[C@@](C(=O)OC)(c3cc4c(cc3OC)N(C)[C@H]3[C@@](O)(C(=O)OC)[C@H](OC(C)=O)[C@]5(CC)C=CCN6CC[C@]43[C@@H]65)C2)C1 [vinblastine, reference compound]
IC50 (CCRF-CEM; [10]): 0.0008 µM | IC50 (CCRF-CEM/VBL100; [11]): 0.122 µM | IC50 (CCRF-CEM/VM1; [12]): 0.0014 µM | IC50 (CCRF-CEM/Taxol; [13]): 0.018 µM

CC1=C/C[C@@H](/C(C)=C/c2coc(C)n2)OC(=O)C[C@H](O)C(C)(C)C(=O)[C@H](C)[C@@H](O)[C@@H](C)C\C=C\1 [19-oxa epothilone 490]
IC50 (CCRF-CEM; Homo sapiens, CCRF-CEM, Example 9 table, read-out: Cell Growth Inhibition (IC50) CCRF-CEM): 0.015 µM | IC50 (CCRF-CEM/VBL100; Homo sapiens, CCRF-CEM, Example 9 table, read-out: Cell Growth Inhibition (IC50) CCRF-CEM/VBL): 0.06 µM | IC50 (CCRF-CEM/Taxol; Homo sapiens, CCRF-CEM, Example 9 table, read-out: Cell Growth Inhibition (IC50) CCRF-CEM/taxol): 0.04 µM

C/C1=C/C[C@@H](/C(C)=C/c2csc(C)n2)OC(=O)C[C@H](O)C(C)(C)C(=O)[C@H](C)[C@@H](O)[C@@H](C)CC2CC12 (stereo partly shown) [15 (cyclopropyl)]
IC50 (CCRF-CEM; [1]): 0.077 µM | IC50 (CCRF-CEM/VBL100; [2]): 0.141 µM | % Tubulin Binding (tubulin; Example 5 Table 1): 84%

C/C1=C/C[C@@H](/C(C)=C/c2csc(C)n2)OC(=O)C[C@H](O)C(C)(C)C(=O)[C@H](C)[C@@H](O)[C@@H](C)C[C@@H](O)[C@@H]1O [12 (dihydroxy)]
IC50 (CCRF-CEM; [1]): 1 µM | IC50 (CCRF-CEM/VBL100; [2]): 99 µM | IC50 (CCRF-CEM/VM1; [14]): 2.35 µM | IC50 (CCRF-CEM/Taxol; [3]): 16.8 µM | % Tubulin Binding (tubulin; Example 5 Table 1): 31%

C/C1=C/C[C@@H](/C(C)=C/c2csc(C)n2)OC(=O)C[C@H](O)C(C)(C)C(=O)[C@H](C)[C@@H](O)[C@@H](C)CCC1 [dEpoB, 12,13-desoxyepothilone B, reference compound]
IC50 (CCRF-CEM; Homo sapiens, CCRF-CEM, 72 h, read-out: In Vitro Cytotoxicities (IC50) CCRF-CEM): 0.011 µM | IC50 (CCRF-CEM; Homo sapiens, CCRF-CEM, 72 h, read-out: In vitro Cytotoxicities (IC50) CCRF-CEM): 0.011 µM | IC50 (CCRF-CEM; Homo sapiens, CCRF-CEM, 72 h, read-out: In vitro Cytotoxicities (IC50) CCRF-CEM(C)): 0.011 µM | IC50 (CCRF-CEM/VBL100; Homo sapiens, CCRF-CEM, 72 h, read-out: In Vitro Cytotoxicities (IC50) CCRF-CEM/VBL100): 0.015 µM | IC50 (CCRF-CEM/VBL100; Homo sapiens, CCRF-CEM, 72 h, read-out: In vitro Cytotoxicities (IC50) C/VBL100): 0.015 µM | IC50 (CCRF-CEM/VBL100; Homo sapiens, CCRF-CEM, 72 h, read-out: In vitro Cytotoxicities (IC50) CCRF-CEM/VBL100): 0.015 µM | IC50 (CCRF-CEM/VM1; Homo sapiens, CCRF-CEM, 72 h, read-out: In Vitro Cytotoxicities (IC50) CCRF-CEM/VMI): 0.016 µM | IC50 (CCRF-CEM/VM1; Homo sapiens, CCRF-CEM, 72 h, read-out: In vitro Cytotoxicities (IC50) C/VM1): 0.016 µM | IC50 (CCRF-CEM/VM1; Homo sapiens, CCRF-CEM, 72 h, read-out: In vitro Cytotoxicities (IC50) CCRF-CEM/VM1): 0.016 µM | IC50 (CCRF-CEM/Taxol; Homo sapiens, CCRF-CEM, 72 h, read-out: In Vitro Cytotoxicities (IC50) CCRF-CEM/TAXOL): 0.007 µM | IC50 (CCRF-CEM/Taxol; Homo sapiens, CCRF-CEM, 72 h, read-out: In vitro Cytotoxicities (IC50) C/Taxol): 0.007 µM | IC50 (CCRF-CEM/Taxol; Homo sapiens, CCRF-CEM, 72 h, read-out: In vitro Cytotoxicities (IC50) CCRF-CEM/Taxol): 0.007 µM | % Tubulin Binding (tubulin; Example 5 Table 1): 100% | % Tubulin Binding (tubulin; [15]): 100%

CC1=C/C[C@@H](/C(C)=C/c2csc(CO)n2)OC(=O)C[C@H](O)C(C)(C)C(=O)[C@H](C)[C@@H](O)[C@@H](C)C\C=C\1 [Compound 21-OH-Epo490]
activity in CCRF-CEM cell lines (CCRF-CEM): demonstrated activity | IC50 (CCRF-CEM; [1]): 0.03 µM | IC50 (CCRF-CEM; [10]): 0.03 µM | IC50 (CCRF-CEM/VBL100; [2]): 0.202 µM | IC50 (CCRF-CEM/VBL100; [11]): 0.202 µM | IC50 (CCRF-CEM/VM1; [14]): 0.061 µM | IC50 (CCRF-CEM/VM1; [12]): 0.061 µM | activity in CCRF-CEM cell lines resistant to Taxol (CCRF-CEM/Taxol): demonstrated activity | IC50 (CCRF-CEM/Taxol; [3]): 0.051 µM | IC50 (CCRF-CEM/Taxol; [13]): 0.051 µM | % Tubulin Binding (tubulin; Example 5 Table 1): 77% | % Tubulin Binding (tubulin; [15]): 77%

CC(=O)O[C@H]1C(=O)[C@@]2(C)[C@H]([C@H](OC(=O)c3ccccc3)[C@]3(O)C[C@H](OC(=O)[C@H](O)[C@@H](NC(=O)c4ccccc4)c4ccccc4)C(C)=C1C3(C)C)[C@]1(OC(C)=O)CO[C@@H]1C[C@@H]2O [Taxol, paclitaxel, reference compound]
IC50 (CCRF-CEM; [10]): 0.0021 µM | IC50 (CCRF-CEM/VBL100; [11]): 0.827 µM | IC50 (CCRF-CEM/VM1; [12]): 0.003 µM | IC50 (CCRF-CEM/Taxol; [13]): 0.081 µM
